Measured values published in ChEMBL document CHEMBL1201862, “PubChem BioAssay data set” (2004).
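Dose response: 5 concentrations. Exposure: 48 h. Format: 96-well plates. Endpoint: linear interpolation; highest concentration if not reached. GI50: concentration for 50% inhibition of growth.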 Activity calls are given as the source filed them. Rule as the data show it: active = GI50 up to about 1.1 µM and inactive = higher.

Legend:
Experiment in all cases: growth of human tumour cells (NCI), 48 h
DU-145 = system: DU-145
NCI-H460 = system: NCI-H460
SNB-75 = system: SNB-75
OVCAR-3 = system: OVCAR-3
IGROV-1 = system: IGROV-1
UO-31 = system: UO-31
M14 = system: M14
Malme-3M = system: Malme-3M
MDA-MB-435 = system: MDA-MB-435
MCF7 = system: MCF7
OVCAR-8 = system: OVCAR-8
NCI-H226 = system: NCI-H226
SN12C = system: SN12C
786-0 = system: 786-0
K562 = system: K562
SK-MEL-28 = system: SK-MEL-28
OVCAR-4 = system: OVCAR-4
NCI-H522 = system: NCI-H522
HCT-15 = system: HCT-15

| Compound | GI50 (DU-145) | GI50 (NCI-H460) | GI50 (SNB-75) | GI50 (OVCAR-3) | GI50 (IGROV-1) | GI50 (UO-31) | GI50 (M14) | GI50 (Malme-3M) | GI50 (MDA-MB-435) | GI50 (MCF7) | GI50 (OVCAR-8) | GI50 (NCI-H226) | GI50 (SN12C) | GI50 (786-0) | GI50 (K562) | GI50 (SK-MEL-28) | GI50 (OVCAR-4) | GI50 (NCI-H522) | GI50 (HCT-15) [µM] |
| --- | --- | --- | --- | --- | --- | --- | --- | --- | --- | --- | --- | --- | --- | --- | --- | --- | --- | --- | --- |
| N#CC12COC3(CCCCC3C1(C#N)C#N)OC2=N (centres undefined) | 15.3 µM (inactive) | 16 µM (inactive) | 14 µM (inactive) | 11.1 µM (inactive) | 14.6 µM (inactive) | 15.2 µM (inactive) | 10.6 µM (inactive) | 16.3 µM (inactive) | 18.9 µM (inactive) | 11.7 µM (inactive) | > 10 µM (inactive) | 22.9 µM (inactive) | 12.3 µM (inactive) | 19.2 µM (inactive) | 10.6 µM (inactive) | 14.6 µM (inactive) | – | – | – |
| CC(C)(C)OC(=O)N1CC(O)O[C@H](c2ccccc2)[C@@H]1c1ccccc1 (some centres undefined) | 25.5 µM (inactive) | – | 24.8 µM (inactive) | 15.6 µM (inactive) | 18.9 µM (inactive) | 17.6 µM (inactive) | 16.4 µM (inactive) | 19.4 µM (inactive) | 17.3 µM (inactive) | – | 29.7 µM (inactive) | 20.6 µM (inactive) | 38.2 µM (inactive) | 27.9 µM (inactive) | 33.4 µM (inactive) | 18.6 µM (inactive) | 18.5 µM (inactive) | 21.2 µM (inactive) | 18 |
| CC(C)(C)OC(=O)N1N=CCC1c1ccccc1 (centres undefined) | > 100 µM (inactive) | > 100 µM (inactive) | > 100 µM (inactive) | > 100 µM (inactive) | > 100 µM (inactive) | > 100 µM (inactive) | > 100 µM (inactive) | – | > 100 µM (inactive) | > 100 µM (inactive) | > 100 µM (inactive) | > 100 µM (inactive) | > 100 µM (inactive) | > 100 µM (inactive) | > 100 µM (inactive) | – | – | > 100 µM (inactive) | > 100 |
| Fc1ccc(OCc2ccc3nc(-c4ccccc4)c(Cl)nc3c2)cc1 | 30.5 µM (inactive) | 30.1 µM (inactive) | 16.7 µM (inactive) | 47.6 µM (inactive) | 25.1 µM (inactive) | > 100 µM (inactive) | 67.8 µM (inactive) | 9.44 µM (inactive) | 91.4 µM (inactive) | 53.1 µM (inactive) | 36.4 µM (inactive) | – | 56.6 µM (inactive) | 16.9 µM (inactive) | – | 69.3 µM (inactive) | 39.5 µM (inactive) | 6.19 µM (inactive) | > 100 |
| CC1NC(/C(=C/c2ccccc2O)NC(=O)c2ccccc2)OC1=O (centres undefined) | – | – | 13.9 µM (inactive) | > 50 µM (inactive) | 14 µM (inactive) | > 50 µM (inactive) | > 50 µM (inactive) | 9.31 µM (inactive) | 28.8 µM (inactive) | 1.47 µM (inactive) | > 50 µM (inactive) | > 50 µM (inactive) | > 50 µM (inactive) | 16.3 µM (inactive) | > 50 µM (inactive) | > 50 µM (inactive) | > 50 µM (inactive) | 24.2 µM (inactive) | 34.1 |
| C=CCCC(=O)N1CCC(C(=O)OCC)C1=O (centres undefined) | > 100 µM (inactive) | – | > 100 µM (inactive) | – | > 100 µM (inactive) | > 100 µM (inactive) | > 100 µM (inactive) | > 100 µM (inactive) | > 100 µM (inactive) | – | > 100 µM (inactive) | 90.8 µM (inactive) | > 100 µM (inactive) | > 100 µM (inactive) | – | > 100 µM (inactive) | > 100 µM (inactive) | > 100 µM (inactive) | > 100 |
| CCOc1c2ccsc2c(OCC)c2ccsc12 | 5 µM (inactive) | 3.58 µM (inactive) | 3.31 µM (inactive) | 3.52 µM (inactive) | 5.06 µM (inactive) | 9.02 µM (inactive) | 4.69 µM (inactive) | 3.73 µM (inactive) | 0.766 µM (active) | 3.59 µM (inactive) | 6.24 µM (inactive) | – | 20.6 µM (inactive) | 4.44 µM (inactive) | 2.95 µM (inactive) | 9.38 µM (inactive) | > 100 µM (inactive) | 3.27 µM (inactive) | 4.06 |
| C/C(=N\OCC(O)CNCCSCc1ccccc1)c1ccccc1Cl (centres undefined) | 23.3 µM (inactive) | 21.6 µM (inactive) | 21.4 µM (inactive) | 17.9 µM (inactive) | – | 15.7 µM (inactive) | 21.8 µM (inactive) | 19.8 µM (inactive) | 17.4 µM (inactive) | 19.8 µM (inactive) | 14.6 µM (inactive) | 17.6 µM (inactive) | 18.6 µM (inactive) | 21.4 µM (inactive) | 38.4 µM (inactive) | 20.7 µM (inactive) | – | 28.7 µM (inactive) | 18.2 |
| N=C(N)NC1C(O)C(O)C(O)C(NC(=N)N)C1O (centres undefined) | > 100 µM (inactive) | > 100 µM (inactive) | > 100 µM (inactive) | > 100 µM (inactive) | > 100 µM (inactive) | > 100 µM (inactive) | > 100 µM (inactive) | > 100 µM (inactive) | > 100 µM (inactive) | > 100 µM (inactive) | > 100 µM (inactive) | – | > 100 µM (inactive) | > 100 µM (inactive) | > 100 µM (inactive) | > 100 µM (inactive) | > 100 µM (inactive) | > 100 µM (inactive) | > 100 |
| COC(=O)C12C3C4(C(=O)OC)C1C1(C(=O)OC)C2C3(C(=O)OC)C41C(=O)N(C(C)C)C(C)C (centres undefined) | > 100 µM (inactive) | > 100 µM (inactive) | > 100 µM (inactive) | > 100 µM (inactive) | > 100 µM (inactive) | > 100 µM (inactive) | > 100 µM (inactive) | – | > 100 µM (inactive) | > 100 µM (inactive) | > 100 µM (inactive) | – | > 100 µM (inactive) | > 100 µM (inactive) | > 100 µM (inactive) | > 100 µM (inactive) | > 100 µM (inactive) | > 100 µM (inactive) | > 100 |
| CN(C)c1nc2n(CCO)c(-c3ccccc3)c(-c3ccccc3)nc-2c(=O)n1 | > 100 µM (inactive) | > 100 µM (inactive) | 21.7 µM (inactive) | > 100 µM (inactive) | > 100 µM (inactive) | > 100 µM (inactive) | > 100 µM (inactive) | > 100 µM (inactive) | > 100 µM (inactive) | – | > 100 µM (inactive) | > 100 µM (inactive) | > 100 µM (inactive) | > 100 µM (inactive) | > 100 µM (inactive) | > 100 µM (inactive) | > 100 µM (inactive) | > 100 µM (inactive) | > 100 |
| CC(=O)OCC1OC(Oc2cc(C)c(O)cc2C/C=C(\C)CC/C=C(\C)CC(=O)CC(C)C)C(O)C(OC(C)=O)C1OC(C)=O (centres undefined) | 23.3 µM (inactive) | 13.7 µM (inactive) | > 50 µM (inactive) | 8.81 µM (inactive) | 29.4 µM (inactive) | 3.28 µM (inactive) | 5.22 µM (inactive) | > 50 µM (inactive) | 15 µM (inactive) | 12.8 µM (inactive) | 16.9 µM (inactive) | – | 15.2 µM (inactive) | 21 µM (inactive) | 9.38 µM (inactive) | 27.4 µM (inactive) | 19.6 µM (inactive) | 13.6 µM (inactive) | 14.3 |
| COc1cc(OC)c(-c2ccc(OCc3ccccc3)c3c(OC)cc(C)cc23)c2c1C(C)=N[C@H](C)C2 | 2.38 µM (inactive) | 2.1 µM (inactive) | 2.29 µM (inactive) | 2.25 µM (inactive) | 1.87 µM (inactive) | 1.14 µM (inactive) | 2.03 µM (inactive) | 1.8 µM (inactive) | 2.3 µM (inactive) | – | 1.96 µM (inactive) | 2.64 µM (inactive) | 2.04 µM (inactive) | 2.1 µM (inactive) | 1.55 µM (inactive) | 2.36 µM (inactive) | 2.14 µM (inactive) | 1.82 µM (inactive) | 2.14 |
| CCCCCCCCCCCCOP(=O)(O)OP(=O)(O)OCC1OC(n2cc(C)c(=O)[nH]c2=O)CC1O (centres undefined) | – | > 100 µM (inactive) | > 100 µM (inactive) | > 100 µM (inactive) | > 100 µM (inactive) | > 100 µM (inactive) | > 100 µM (inactive) | > 100 µM (inactive) | > 100 µM (inactive) | > 100 µM (inactive) | > 100 µM (inactive) | > 100 µM (inactive) | > 100 µM (inactive) | > 100 µM (inactive) | > 100 µM (inactive) | > 100 µM (inactive) | > 100 µM (inactive) | > 100 µM (inactive) | > 100 |
| CC1(C)SC2C(NC(=O)C(C(=O)O)c3ccccc3)C(=O)N2C1C(=O)O (centres undefined) | > 100 µM (inactive) | – | 92 µM (inactive) | > 100 µM (inactive) | > 100 µM (inactive) | > 100 µM (inactive) | > 100 µM (inactive) | > 100 µM (inactive) | > 100 µM (inactive) | > 100 µM (inactive) | > 100 µM (inactive) | > 100 µM (inactive) | > 100 µM (inactive) | > 100 µM (inactive) | > 100 µM (inactive) | > 100 µM (inactive) | – | – | > 100 |
| O=[N+]([O-])c1cc(-c2nnc(C34CC5CC(CC(C5)C3)C4)o2)cc([N+](=O)[O-])c1 | 33 µM (inactive) | 32.4 µM (inactive) | 74.6 µM (inactive) | 63.5 µM (inactive) | > 100 µM (inactive) | > 100 µM (inactive) | 21.5 µM (inactive) | 64.4 µM (inactive) | 19.1 µM (inactive) | – | 25.5 µM (inactive) | 83.4 µM (inactive) | 90.8 µM (inactive) | 34.2 µM (inactive) | 21 µM (inactive) | 86.1 µM (inactive) | > 100 µM (inactive) | > 100 µM (inactive) | 21.1 |
